The nature of this experiment: 24 hours prior to assay, media containing 5 mM sodium butyrate were added to MDCKII cells in flasks, and cells were grown to 80-90% confluence. On assay day, cells were trypsinized and resuspended in Krebs-Henseleit Buffer (KHB), pH 7.4 at 5×10^6 […] cells/mL. Cells were preincubated for 15 min in assay plate before addition of test compound or substrate.Test compounds were serially diluted in DMSO and then spiked (2 μL) into in 0.4 mL KHB buffer containing wild-type or OCT2-transfected cells and incubated for 10 minutes. Assay was initiated with the addition of 0.1 mL of 100 μM 14C-TEA in KHB buffer (20 μM final concentration after mixing). The concentration of TEA is based on the Km. After 10 minutes of incubation, the assay mixture was quenched with addition of 0.5 mL of ice-cold 1×PBS buffer. Samples were then centrifuged at 1000 rpm for 5 min and supernatants were removed. Wash steps were repeated four times with ice-cold PBS. Finally, the cell pellets were lysed with 0.2N NaOH and let sit at room temperature for at least 30 min to ensure complete lysis. Particulars: MDCK-II.

The structures appear in SMILES notation.

The term IC50 denotes the concentration that gives 50% inhibition.

Regarding `C[C@@H](NC(=O)c1cn2c(c(O)c1=O)C(=O)N1C(C2)O[C@@H]2CC[C@@H]1C2)c1ccc(F)cc1F` (stereo partly drawn), the IC50 worked out at 610 nM.
For `O=C(NCc1cc(F)ccc1F)c1cn2c(cc1=O)C(=O)N1C3CCC(C3)C1C2` (stereo not drawn) the value was 450 nM; for `O=C(NCc1c(F)cc(F)cc1F)c1cn2c(c(O)c1=O)C(=O)N1C3CCC(C3)O[C@H]1C2` (stereo partly drawn), 137 nM.

The record behind these values is ChEMBL document CHEMBL5727772, “Substituted 3,4,5,6,8,10,14,14a-octahydro-2h-2,6-methanopyrido[1′,2′:4,5]pyrazino[2,1-b][1,3]oxazocines and methods for treating viral infections” (2020).
